According to patent US12421257B2, “Compositions and methods for inhibiting group II intron RNA” (YALE UNIVERSITY, priority 2018, dated 2025):
≈ marks a conversion by molar mass, not a printed value.

Key:
[1] = test system: ai5γ group II intron (D135 ribozyme); assay: Fluorescent D135 ribozyme cleavage assay (IC50); format: biochemical, Saccharomyces cerevisiae; conditions: D135 ribozyme cleavage of substrate 17/2 DL, 100 mM MgCl2, 500 mM KCl, 37° C., 10 minutes
Description: The D135 ribozyme (Su et al., 2005, Nucleic Acids Res, 33:6674-6687), fluorescently labeled oligo substrate 17/2 DL (FIG. 1A-FIG. 1D) (both at 20 nM final concentrations in 50 mM MOPS, pH 7.0, 100 mM MgCl2, 0.5M KCl), and the test compounds (final concentration of 10 μM in 50 mM MOPS, pH 7.0, 100 mM MgCl2, 0.5M KCl) were aliquoted onto black non-binding 384-well plates (Corning 3757) using the multidrop combi (ThermoFisherScientific) and pintool (V & P Scientific). The reaction mixtures were incubated at 37° C. for 45 minutes, then the reaction was quenched with 100 mM EDTA and fluorescence intensity was analyzed on a Tecan Infinite multimode plate reader (λex 520 nm, λem 560 nm, 5 nm bandwidth). Data were normalized to untreated wells and wells lacking the D135 ribozyme, and percent of inhibition was calculated using ActivityBase (IDBS). The Z′-factor was calculated as described (Zhang et al., 1999, J Biomol Screen, 4:67-73): Z′=1−3×(σp+σn)/|μp−μn|, • where μp and σn are mean value and standard deviation for the positive control (substrate only), and where μn and σn are mean value and standard deviation for the negative control (no compound). The average Z′-factor from the screen was 0.83±0.03. IC50 Measurement for the Small Molecule Inhibition of the D135 Ribozyme Cleavage Reaction.
Black 96-well plates (Corning 3695) were filled with 50 μl of solution containing 20 nM D135 ribozyme, 20 nM double-labeled substrate 17/2 DL and small molecule inhibitor in 50 mM MOPS, pH 7.0, 100 mM MgCl2 and 500 mM KCl. Small molecule inhibitors were tested at 19 different concentrations ranging from 5 nM to 1 mM. Plates were incubated at 37° C. for 10 minutes, then reaction mixtures were quenched with 100 mM EDTA and analyzed on the Synergy H1 plate reader (BioTek). Each experiment was performed in triplicate. Data were fit to a 4-parameter logistic function c+(d−c)/(1+(x/a)^b), where a is the IC50, b is the slope parameter, c is the minimum response and d is the maximum response. Data are reported as average±s.e.m

HEK-293T cells = assay: Cytotoxicity in HEK-293T cells (Cell Titer Glo); format: cell-based, human; conditions: Homo sapiens, cytotoxicity, 24 hours with compound, read-out: IC50 HEK-293
Description: HEK-293T cells were cultured in Dulbecco's Modified Eagle's Medium (DMEM) (Gibco) supplemented with 10% Fetal Bovine Serum (FBS, Gibco) and 100 U/ml of Penicillin-Streptomycin (Gibco) at 37° C. and 5% CO2. For the cytotoxicity experiments, cells were aliquoted into black 96-well plates with a clear bottom (Corning 3603) at a concentration of 10,000 cells per well. The cells were grown at 37° C., 5% CO2 for 5-6 hours, then the medium was replaced with the same medium without FBS and cells were grown at 37° C., 5% CO2 for 24 hours. Freshly prepared stock solutions of test compounds (12.8 mg/ml in DMSO) were serially diluted 1:2 with DMSO into the first 11 successive wells of a 12-well row on a 96-well plate as described above. Well 12 was used as a growth control (no compound). […] After incubation, cell viability was determined using the luminescent Cell Titer Glo cell viability assay (Promega), in which 100 μl of the assay reagent was added to each well of the assay plate. After gentle shaking for 7-10 minutes, the plates were analyzed on a Synergy H1 plate reader (BioTek). Luminescence was plotted against the compound concentration and IC50 values were determined by fitting the data to a 4-parameter logistic function c+(d−c)/(1+(x/a)^b), where a is the IC50, b is the slope parameter, c is the minimum response and d is the maximum response. Experiments were replicated to ensure reproducibility.

C. parapsilosis = assay: MIC determination against C. parapsilosis; format: cell-based, Candida parapsilosis; conditions: Lodderomyces parapsilosis; RPMI-1640, 35° C. or 37° C., turbidity after 24 and 48 hours
Description: Minimal inhibitory concentrations (MICs) for C. parapsilosis were determined in a final volume of 100 μl. Fresh stock solutions of control antifungal drugs (Amphotericin B and Itraconazole) and of test compounds were prepared at 3.2 mg/ml and at 12.8 mg/ml respectively in DMSO. After placing the stock in the first well, solutions of test compounds and antifungal controls were serially diluted 1:2 with DMSO into the first […] successive wells of a 12-well row on a 96-well plate (as described above). After dilution, 2.5 μl from each of these 10 wells were transferred onto a separate 96-well plate and diluted with 122.5 μl of RPMI-1640 medium (Sigma). Wells 11 and 12 contained 2.5 μl DMSO and 122.5 μl of RPMI-1640 as a positive growth control (no compound) and sterility control (no inoculum added). A 50 μl volume was taken from each of the RPMI dilutions (wells 1-12) and transferred to the wells of a third 96-well plate (assay plate), where they were mixed with an equal volume (50 μl) of freshly prepared inoculum of C. parapsilosis in RPMI-1640 medium, set at a density to provide the 0.5×10^3 to 2.5×10^3 colony forming units per 1 mL (except for the sterility control). Sterility control was mixed with 50 μl of sterile medium.
The final concentration range of the assay was 0.25-128 μg/ml for test compounds and 0.0625-32 μg/ml for Amphotericin B and Itraconazole. The final concentration of DMSO was 1%. The assay plate was incubated at 35° C. or 37° C. and visually analyzed for turbidity after 24 and 48 hours of incubation. The lowest compound concentration at which no growth was apparent is reported as the MIC. All experiments were performed in triplicate.

Compound	IC50 [1]	IC50 (HEK-293T cells)	MIC (C. parapsilosis)
COc1cc(/C=C2\Oc3cc(O)cc(O)c3C2=O)cc(OC)c1OC [APY-003]	> 500 µM	> 64 µg/mL	> 128 µg/mL
COc1cc(/C=C2\Oc3cc(O)cc(O)c3C2=O)cc(OC)c1 [APY-012]	> 500 µM		> 128 µg/mL
O=C1/C(=C/c2cc(O)c(O)c(O)c2)Oc2ccccc21 [APY-024, (Z)-2-(3,4,5-Trihydroxybenzylidene)benzofuran-3(2H)-one]		23 ± 2 µg/mL	8 µg/mL (≈ 29.6 µM)
O=C(N/N=C/c1cc(F)c(O)c(F)c1)c1cc(O)c(O)c(O)c1 [APY-031]	6.3 µM	47.8 µg/mL	32 µg/mL (≈ 98.7 µM)
O=C(N/N=C/c1ccc(O)cc1)c1cc(O)c(O)c(O)c1 [APY-032]	10.6 µM	4.14 µg/mL	8 µg/mL (≈ 27.8 µM)
O=C(N/N=C/c1ccc(O)cc1Cl)c1cc(O)c(O)c(O)c1 [APY-033]	6.5 µM	50 µg/mL	8 µg/mL (≈ 24.8 µM)
O=C(N/N=C/c1ccc(O)c(Cl)c1)c1cc(O)c(O)c(O)c1 [APY-034]	4.7 µM	54.5 µg/mL	8 µg/mL (≈ 24.8 µM)
COc1cc(/C=N/NC(=O)c2cc(O)c(O)c(O)c2)cc(OC)c1O [APY-035]	7.7 µM	39.3 µg/mL	4 µg/mL (≈ 11.5 µM)
COc1cc(/C=N/NC(=O)c2cc(O)c(O)c(O)c2)cc(O)c1OC [APY-036]	7.7 µM	10.4 µg/mL	4 µg/mL (≈ 11.5 µM)
O=C(N/N=C/c1cccc(O)c1O)c1cc(O)c(O)c(O)c1 [APY-037]	3.7 µM	5.4 µg/mL	8 µg/mL (≈ 26.3 µM)
O=C(N/N=C/c1cccc(O)c1)c1cc(O)c(O)c(O)c1 [APY-040]	9.9 µM	30.1 µg/mL	8 µg/mL (≈ 27.8 µM)
COc1ccc(/C=N/NC(=O)c2cc(O)c(O)c(O)c2)cc1OC [APY-041]	3.8 µM	49.5 µg/mL	8 µg/mL (≈ 24.1 µM)
COc1cccc(/C=N/NC(=O)c2ccc(O)c(O)c2)c1O [APY-054]	> 500 µM	> 64 µg/mL	> 128 µg/mL
O=C(N/N=C/c1cncnc1)c1cc(O)c(O)c(O)c1 [APY-057]	12.9 µM	39.4 µg/mL	16 µg/mL (≈ 58.3 µM)
COc1ccc(/C=C/C=N/NC(=O)c2cc(O)c(O)c(O)c2)cc1 [APY-058]	10.1 µM	23 µg/mL	4 µg/mL (≈ 12.2 µM)
O=C(c1cc(O)c(O)c(O)c1)c1cc2ccccc2o1 [APY-068, Benzofuran-2-yl(3,4,5-trihydroxyphenyl)methanone]		1.3 ± 0.3 µg/mL	16 µg/mL (≈ 59.2 µM)
O=C(c1cc(O)c(O)c(O)c1)N1CCc2ccccc2C1 [APY-085]	6.4 µM	18.7 µg/mL	32 µg/mL (≈ 112 µM)
O=C(c1cc(O)c(O)c(O)c1)N1CCC(c2ccccc2)C1 (stereo not drawn) [APY-086]	61 µM	43.7 µg/mL	64 µg/mL (≈ 214 µM)
O=C(c1cc(O)c(O)c(O)c1)N1CCC(c2ccccc2)CC1 [APY-087]	79 µM	8.4 µg/mL	32 µg/mL (≈ 102 µM)

Compound	IC50 [1]	IC50 (HEK-293T cells)	MIC (C. parapsilosis)
O=C(c1cc(O)c(O)c(O)c1)N1CCC(c2noc3cc(F)ccc23)CC1 [APY-088]	24 µM	6.55 µg/mL	16 µg/mL (≈ 43 µM)
CCN(CC)Cc1ccc(-c2ccc(-c3nc(-c4cc(O)c(O)c(O)c4)cs3)cc2)cc1 [APY-092]	1.3 µM	24.8 µg/mL	16 µg/mL (≈ 35.8 µM)
CCCCNS(=O)(=O)c1ccc(-c2ccc3oc(C(=O)c4cc(O)c(O)c(O)c4)cc3c2)cc1 [APY-094, N-Butyl-4-{2[(3,4,5-trihydroxyphenyl)carbonyl]-1-benzofuran-5-yl}benzene-1-sulfonamide]		15 ± 4 µg/mL	8 to 16 µg/mL (≈ 16.6 to 33.2 µM)
O=C(c1cc(O)c(O)c(O)c1)c1cc2cc(-c3ccc(C(=O)NC4CCCC4)c(Cl)c3)ccc2o1 [APY-095]		2.5 µg/mL	4 to 8 µg/mL (≈ 8.13 to 16.3 µM)
CCN(Cc1ccccc1)C(=O)c1ccc(-c2ccc3oc(C(=O)c4cc(O)c(O)c(O)c4)cc3c2)cc1 [APY-096]		1.4 µg/mL	2 to 4 µg/mL (≈ 3.94 to 7.88 µM)
CS(=O)(=O)c1ccc(C(=O)c2cc3cc(-c4ccc(CO)cc4)ccc3o2)cc1 [APY-099]	> 1000 µM	8.2 µg/mL	> 128 µg/mL
O=C(c1ccc([N+](=O)[O-])cc1)c1cc2cc(-c3ccc(CO)cc3)ccc2o1 [APY-100]	> 1000 µM	> 128 µg/mL	> 128 µg/mL
Oc1cc(-c2csc(-c3ccc(Cl)cc3)n2)cc(O)c1O [NED-2014]	46 ± 2 µM	0.6 µg/mL	8 µg/mL (≈ 25 µM)
O=C(c1cc(O)c(O)c(O)c1)N1CCN(c2ccccc2)CC1 [NED-2015]	> 1000 µM	4.4 µg/mL	16 to 32 µg/mL (≈ 50.9 to 102 µM)
Oc1cc(-c2nc3ccc(C(F)(F)F)cc3s2)cc(O)c1O [NED-2016]	> 1000 µM	1.5 µg/mL	4 µg/mL (≈ 12.2 µM)
O=C(O)c1ccc2oc(C(=O)c3cc(O)c(O)c(O)c3)cc2c1 [NED-2017]	> 1000 µM		16 to 32 µg/mL (≈ 50.9 to 102 µM)
Cc1ccc(NC(=O)c2ccc3oc(C(=O)c4cc(O)c(O)c(O)c4)cc3c2)c(C)c1 [NED-2021, N-(2,4-dimethylphenyl)-2-(3,4,5-trihydroxybenzoyl)benzofuran-5-carboxamide]	> 1000 µM		32 to 64 µg/mL (≈ 76.7 to 153 µM)
CC(C)N1CCN(C(=O)c2ccc3oc(C(=O)c4cc(O)c(O)c(O)c4)cc3c2)CC1 [NED-2022, (4-isopropylpiperazin-1-yl)(2-(3,4,5-trihydroxybenzoyl)-benzofuran-5-yl)methanone]	52 ± 12 µM		16 µg/mL (≈ 37.7 µM)
COc1cc(/C=N/NC(=O)c2cc(O)c(O)c(O)c2)cc(OC)c1OC [NED-2039, (E)-3,4,5-trihydroxy-N′-(3,4,5-trimethoxybenzylidene)benzohydrazide]	6 ± 1 µM		8 µg/mL (≈ 22.1 µM)
CCN(CC)CCNC(=O)c1c(C)[nH]c(/C=C/C(=O)c2cc(O)c(O)c(O)c2)c1C [NED-2041]	12 ± 4 µM		32 µg/mL (≈ 77 µM)
Cc1[nH]c(/C=C/C(=O)c2cc(O)c(O)c(O)c2)c(C)c1C(=O)N1CCC(N(C)C)CC1 [NED-2042]	> 1000 µM		16 µg/mL (≈ 37.4 µM)
NNC(=O)c1cc(O)c(O)c(O)c1 [NED-2047, 3,4,5-trihydroxybenzohydrazide]	77 ± 3 µM		16 to 32 µg/mL (≈ 86.9 to 174 µM)
O=C(N/N=C/C1CCCCC1)c1cc(O)c(O)c(O)c1 [NED-2251, (E)-N′-(cyclohexylmethylene)-3,4,5-trihydroxybenzohydrazide]			16 to 32 µg/mL (≈ 57.5 to 115 µM)
